Data: patent publication US20040082606A1, “Excitatory amino acid receptor antagonists” (priority 2003, published 2004)

Tested on: dural protein extravasation
Test: Animal model of dural protein extravasation (electrical stimulation of the trigeminal ganglion, Evans Blue)
Type: in vivo
Conditions: administered orally to rats
Method: The following animal model may be employed to determine the ability of the compounds of Formula I or Formula Ia to inhibit protein extravasation, an exemplary functional assay of the neuronal mechanism of migraine.
A. Harlan Sprague-Dawley rats (225-325 g) or guinea pigs from Charles River Laboratories (225-325 g) are anesthetized with sodium pentobarbital intraperitoneally (65 mg/kg or 45 mg/kg respectively) and are placed in a stereotaxic frame David Kopf Instruments) with the incisor bar set at −3.5 mm for rats or −4.0 mm for guinea pigs. Following a midline sagital scalp incision, two pairs of bilateral holes are drilled through the skull (6 mm posterially, 2.0 and 4.0 mm laterally in rats; 4 mm posteriorly and 3.2 and 5.2 mm laterally in guinea pigs, all coordinates referenced to bregma). […]
D. A fluorescence microscope (Zeiss) equipped with a grating monchromator and a spectrophotometer is used to quantify the amount of Evans Blue dye in each sample. An excitation wavelength of approximately 535 nm is utilized and the emission intensity at 600 nm is determined. […] This facilitates the computer-controlled movement of the stage with fluorescence measurements at 25 points ([…]) on each dural sample. The mean and standard deviation of the measurements are determined by the computer. […]

CCOC(=O)[C@@H]1C[C@H]2C[C@@H](CN3CC(F)(F)C[C@H]3C(=O)OCC)CC[C@H]2CN1.Cl.Cl [3S,4aR,6S,8aR Ethyl 6-(((2S)-2-Ethoxycarbonyl)4,4-difluoropyrrolidinyl)methyl)-1,2,3,4,4a,5,6,7,8,8a-decahydroisoquinoline-3-carboxylate.dihydrochloride]
ID100 (dose that inhibits the extravasation by 100%): approximately 0.01 ng/Kg
